Three compounds from paper PMC7468467, “Characterization of a Novel Chromosomal Class C β-Lactamase, YOC-1, and Comparative Genomics Analysis of a Multidrug Resistance Plasmid in Yokenella regensburgei W13” (Frontiers in Microbiology, 2020) can be followed below.

A word on the IC50: it is the concentration needed to halve the response being measured. A low value points to greater potency.

T1 sequence (A0AB38FXT7 entry or part of it): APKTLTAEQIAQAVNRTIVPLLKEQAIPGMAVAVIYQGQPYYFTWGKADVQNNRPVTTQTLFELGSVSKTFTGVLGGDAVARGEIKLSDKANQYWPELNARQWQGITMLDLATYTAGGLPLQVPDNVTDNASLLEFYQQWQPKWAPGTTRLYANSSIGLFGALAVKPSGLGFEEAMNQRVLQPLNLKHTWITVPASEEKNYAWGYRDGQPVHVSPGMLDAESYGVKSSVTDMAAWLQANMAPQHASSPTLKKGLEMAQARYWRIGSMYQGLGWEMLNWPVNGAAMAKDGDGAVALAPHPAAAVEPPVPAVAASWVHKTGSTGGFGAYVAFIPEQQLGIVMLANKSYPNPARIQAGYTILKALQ

The assay addresses T1, YOC-1 (Yokenella regensburgei, UniProt A0AB38FXT7).
T1 construct: gene C7387_3136; signal peptide (residues 1-22) removed; pCold I in E. coli BL21, N-terminal His tag removed by enterokinase
The assay is described as follows: nitrocefin hydrolysis inhibition, spectrophotometric. The class given is biochemical. Conditions: 100 μM nitrocefin; 5 min preincubation; 37°C.
Regarding `Nc1nc2c(ncn2[C@@H]2O[C@H](COP(=O)(O)O)[C@@H](O)[C@H]2O)c(=O)[nH]1` [GMP], the half-maximal inhibitory concentration (IC50) was found to be 81.73 ± 0.02 µM.

The compound `NC(=O)[C@@H]1CC[C@@H]2CN1C(=O)N2OS(=O)(=O)O` [avibactam] showed an IC50 of 0.00117 ± 0.0002 µM.

`O=C(O)[C@H]1/C(=C/CO)O[C@@H]2CC(=O)N21` [clavulanic acid] showed an IC50 of 57.33 ± 0.03 µM.
